Experimental findings from patent US8765773B2, “Substituted hydroxamic acids and uses thereof” (Millennium Pharmaceuticals, Inc., priority 2010, dated 2014) are described below.

The target of this experiment is T1, purified human HDAC6 (Homo sapiens, UniProt Q9UBN7).
T1 construct: purchased BPS Bioscience 5006
T1 sequence (Q9UBN7 1-1215): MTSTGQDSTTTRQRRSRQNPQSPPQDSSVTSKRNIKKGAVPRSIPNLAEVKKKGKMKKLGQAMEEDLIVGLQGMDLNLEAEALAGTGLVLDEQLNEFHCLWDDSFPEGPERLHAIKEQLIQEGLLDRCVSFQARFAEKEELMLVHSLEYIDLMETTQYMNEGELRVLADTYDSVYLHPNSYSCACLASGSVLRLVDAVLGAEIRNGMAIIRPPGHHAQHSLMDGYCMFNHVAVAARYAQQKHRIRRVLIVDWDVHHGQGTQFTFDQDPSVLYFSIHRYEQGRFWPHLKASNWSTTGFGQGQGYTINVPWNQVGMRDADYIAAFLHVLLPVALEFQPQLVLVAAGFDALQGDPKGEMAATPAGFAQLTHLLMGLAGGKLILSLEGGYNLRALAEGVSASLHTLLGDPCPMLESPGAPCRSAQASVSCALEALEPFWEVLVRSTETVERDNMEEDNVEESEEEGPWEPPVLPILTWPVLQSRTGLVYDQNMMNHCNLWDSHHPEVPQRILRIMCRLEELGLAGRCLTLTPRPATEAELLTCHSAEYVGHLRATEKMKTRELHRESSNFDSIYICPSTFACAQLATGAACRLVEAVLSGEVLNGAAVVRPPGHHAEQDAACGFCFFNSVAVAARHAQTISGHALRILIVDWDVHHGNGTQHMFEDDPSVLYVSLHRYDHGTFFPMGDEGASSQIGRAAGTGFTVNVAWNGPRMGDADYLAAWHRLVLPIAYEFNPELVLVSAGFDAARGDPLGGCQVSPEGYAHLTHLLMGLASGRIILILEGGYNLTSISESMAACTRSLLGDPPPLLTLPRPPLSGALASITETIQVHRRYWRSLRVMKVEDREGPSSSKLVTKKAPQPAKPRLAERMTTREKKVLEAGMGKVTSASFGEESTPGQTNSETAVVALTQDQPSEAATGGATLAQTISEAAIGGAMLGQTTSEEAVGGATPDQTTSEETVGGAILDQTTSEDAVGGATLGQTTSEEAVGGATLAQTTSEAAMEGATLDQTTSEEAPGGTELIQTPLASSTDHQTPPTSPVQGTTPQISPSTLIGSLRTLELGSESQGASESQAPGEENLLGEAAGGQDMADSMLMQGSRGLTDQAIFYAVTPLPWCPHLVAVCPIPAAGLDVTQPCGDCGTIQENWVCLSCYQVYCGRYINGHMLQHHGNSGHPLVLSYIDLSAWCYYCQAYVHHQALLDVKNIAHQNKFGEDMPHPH
Put plainly: HDAC6 Enzyme Assay. It counts as biochemical. As to conditions: compound concentration 0.37 μM, read-out: Percent Inhibition. In short, it runs like this: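 Purified human HDAC6 incubated 1 h at 30° C with Ac-Arg-Gly-Lys(Ac)-AMC peptide plus compound or DMSO; stopped with trichostatin A. Deacetylated product trypsin-digested, released AMC read by fluorescence (Ex 340/Em 460 nm). Percent inhibition at one concentration or IC50 from curves relative to DMSO controls.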
By inhibition is commonly meant the relative decrease from the control value, in per cent. Regarding `O=C(NO)c1ccc2ncn(CCC(c3ccccc3)C3CCCCC3)c(=O)c2c1` (centres unmarked) [Compound I-340, 3-(3-cyclohexyl-3-phenylpropyl)-N-hydroxy-4-oxo-3,4-dihydroquinazoline-6-carboxamide], the inhibition at 0.37 µM stood at 94.9%.

Consider `CS(=O)(=O)c1cccc(-c2cccc(CCn3cnc4ccc(C(=O)NO)cc4c3=O)c2)c1` [Compound I-341, N-hydroxy-3-{2-[3′-(methylsulfonyl)biphenyl-3-yl]ethyl}-4-oxo-3,4-dihydroquinazoline-6-carboxamide], for which the inhibition at 0.37 µM stood at 94.5%.

Take `CC(C)c1cccc(-c2cccc(CCn3cnc4ccc(C(=O)NO)cc4c3=O)c2)c1` [Compound I-342, N-hydroxy-3-[2-(3′-isopropylbiphenyl-3-yl)ethyl]-4-oxo-3,4-dihydroquinazoline-6-carboxamide]: the inhibition at 0.37 µM is 69.5%.

As for `O=C(NO)c1ccc2ccn(CCC3CCNCC3)c(=O)c2c1` [Compound I-343, N-hydroxy-1-oxo-2-(2-piperidin-4-ylethyl)-1,2-dihydroisoquinoline-7-carboxamide], the inhibition at 0.37 µM was 91.3%.

`O=C(NO)c1ccc2ccn(CCc3ccccn3)c(=O)c2c1` [Compound I-344, N-hydroxy-1-oxo-2-(2-pyridin-2-ylethyl)-1,2-dihydroisoquinoline-7-carboxamide]: the inhibition at 0.37 µM came out at 93.1%.

With `O=C(NO)c1ccc2ncn(CCc3cccc(-c4cc(Cl)cc(Cl)c4)c3)c(=O)c2c1` [Compound I-345, 3-[2-(3′,5′-dichlorobiphenyl-3-yl)ethyl]-N-hydroxy-4-oxo-3,4-dihydroquinazoline-6-carboxamide], the inhibition at 0.37 µM came to 81.9%.

As for `O=C(NO)c1ccc2ccn(-c3ccccc3F)c(=O)c2c1` [Compound I-346, 2-(2-fluorophenyl)-N-hydroxy-1-oxo-1,2-dihydroisoquinoline-7-carboxamide], the inhibition at 0.37 µM came to 87%.

On to `O=C(NO)c1ccc2ncn(CCc3cccc(-c4c(F)cccc4F)c3)c(=O)c2c1` [Compound I-347, 3-[2-(2′,6′-difluorobiphenyl-3-yl)ethyl]-N-hydroxy-4-oxo-3,4-dihydroquinazoline-6-carboxamide], for which the inhibition at 0.37 µM came to 63.7%.

As to `COCc1cn(Cc2ccccc2)c(=O)c2cc(C(=O)NO)ccc12` [Compound I-394, 2-benzyl-N-hydroxy-4-(methoxymethyl)-1-oxo-1,2-dihydroisoquinoline-7-carboxamide], the inhibition at 0.37 µM was 49.2%.

For the compound `COc1ccc(-c2nc3cc(C(=O)NO)ccc3c(=O)[nH]2)cc1` [Compound I-395, N-hydroxy-2-(4-methoxyphenyl)-4-oxo-3,4-dihydroquinazoline-7-carboxamide], the inhibition at 0.37 µM was 80.8%.

With `O=C(NO)c1ccc2c(=O)[nH]c(-c3cccc(-c4ccncc4)c3)nc2c1` [Compound I-396, N-hydroxy-4-oxo-2-(3-pyridin-4-ylphenyl)-3,4-dihydroquinazoline-7-carboxamide], the inhibition at 0.37 µM amounted to 62.3%.

For the compound `O=C(NO)c1ccc2ccn(-c3ccnc(NC(=O)C4CC4)c3)c(=O)c2c1` [Compound I-397, 2-{2-[(cyclopropylcarbonyl)amino]pyridin-4-yl}-N-hydroxy-1-oxo-1,2-dihydroisoquinoline-7-carboxamide], the inhibition at 0.37 µM was 96.3%.

Turning to `O=C(NO)c1ccc2c(=O)[nH]c(-c3cccnc3)nc2c1` [Compound I-398, N-hydroxy-4-oxo-2-pyridin-3-yl-3,4-dihydroquinazoline-7-carboxamide], the inhibition at 0.37 µM was determined as 79%.

On to `CCn1nccc1-c1nc2cc(C(=O)NO)ccc2c(=O)[nH]1` [Compound I-399, 2-(1-ethyl-1H-pyrazol-5-yl)-N-hydroxy-4-oxo-3,4-dihydroquinazoline-7-carboxamide], for which the inhibition at 0.37 µM stood at 61.8%.

As to `Cc1cn(Cc2ccccc2)c(=O)c2cc(C(=O)NO)ccc12` [Compound I-400, 2-benzyl-N-hydroxy-4-methyl-1-oxo-1,2-dihydroisoquinoline-7-carboxamide], the inhibition at 0.37 µM worked out at 73.9%.

Take `O=C(NO)c1ccc2c(=O)[nH]c(-c3ccccc3)nc2c1` [Compound I-401, N-hydroxy-4-oxo-2-phenyl-3,4-dihydroquinazoline-7-carboxamide]: the inhibition at 0.37 µM amounted to 88.2%.

On to `CC(C)Cc1nc2cc(C(=O)NO)ccc2c(=O)[nH]1` [Compound I-402, N-hydroxy-2-isobutyl-4-oxo-3,4-dihydroquinazoline-7-carboxamide], for which the inhibition at 0.37 µM worked out at 91.7%.

`Cc1ncc(-c2nc3cc(C(=O)NO)ccc3c(=O)[nH]2)n1C` [Compound I-403, 2-(1,2-dimethyl-1H-imidazol-5-yl)-N-hydroxy-4-oxo-3,4-dihydroquinazoline-7-carboxamide]: the inhibition at 0.37 µM was -4.61%.

Turning to `O=C(NO)c1ccc2c(=O)[nH]c(-c3nc4ccccc4o3)nc2c1` [Compound I-404, 2-(1,3-benzoxazol-2-yl)-N-hydroxy-4-oxo-3,4-dihydroquinazoline-7-carboxamide], the inhibition at 0.37 µM came out at 5.79%.

Turning to `O=C(NO)c1ccc2c(=O)[nH]c(-c3ccc4ccccc4c3)nc2c1` [Compound I-405, N-hydroxy-2-(2-naphthyl)-4-oxo-3,4-dihydroquinazoline-7-carboxamide], the inhibition at 0.37 µM came out at 92%.

As for `Cc1ccccc1Cc1nc2cc(C(=O)NO)ccc2c(=O)[nH]1` [Compound I-406, N-hydroxy-2-(2-methylbenzyl)-4-oxo-3,4-dihydroquinazoline-7-carboxamide], the inhibition at 0.37 µM turned out to be 86.6%.

Turning to `NCc1cn(Cc2ccccc2)c(=O)c2cc(C(=O)NO)ccc12` [Compound I-407, 4-(aminomethyl)-2-benzyl-N-hydroxy-1-oxo-1,2-dihydroisoquinoline-7-carboxamide], the inhibition at 0.37 µM was 51.1%.

`O=C(NO)c1ccc2c(=O)[nH]c(CCc3ccccc3)nc2c1` [Compound I-408, N-hydroxy-4-oxo-2-(2-phenylethyl)-3,4-dihydroquinazoline-7-carboxamide]: the inhibition at 0.37 µM came to 94.9%.

In the case of `O=C(NO)c1ccc2c(=O)[nH]c(CC3CCCCC3)nc2c1` [Compound I-409, 2-(cyclohexylmethyl)-N-hydroxy-4-oxo-3,4-dihydroquinazoline-7-carboxamide], the inhibition at 0.37 µM came out at 92.5%.

Regarding `COc1ccncc1-c1nc2cc(C(=O)NO)ccc2c(=O)[nH]1` [Compound I-410, N-hydroxy-2-(4-methoxypyridin-3-yl)-4-oxo-3,4-dihydroquinazoline-7-carboxamide], the inhibition at 0.37 µM amounted to 68.1%.

With `O=C(NO)c1ccc2c(=O)[nH]c(Cc3ccccc3F)nc2c1` [Compound I-411, 2-(2-fluorobenzyl)-N-hydroxy-4-oxo-3,4-dihydroquinazoline-7-carboxamide], the inhibition at 0.37 µM is 85.1%.

On to `Cc1ccc(CCc2nc3cc(C(=O)NO)ccc3c(=O)[nH]2)o1` [Compound I-412, N-hydroxy-2-[2-(5-methyl-2-furyl)ethyl]-4-oxo-3,4-dihydroquinazoline-7-carboxamide], for which the inhibition at 0.37 µM turned out to be 93%.

On to `CC(C)(c1ccccc1)n1cnc2ccc(C(=O)NO)cc2c1=O` [Compound I-413, N-hydroxy-3-(1-methyl-1-phenylethyl)-4-oxo-3,4-dihydroquinazoline-6-carboxamide], for which the inhibition at 0.37 µM stood at 94.1%.

In the case of `O=C(NO)c1ccc2c(=O)[nH]c(-c3ccccc3Cl)nc2c1` [Compound I-414, 2-(2-chlorophenyl)-N-hydroxy-4-oxo-3,4-dihydroquinazoline-7-carboxamide], the inhibition at 0.37 µM was 95.4%.

For the compound `Cn1c(-c2nc3cc(C(=O)NO)ccc3c(=O)[nH]2)cc2ccccc21` [Compound I-415, N-hydroxy-2-(1-methyl-1H-indol-2-yl)-4-oxo-3,4-dihydroquinazoline-7-carboxamide], the inhibition at 0.37 µM came out at 79.9%.

Regarding `O=C(NO)c1ccc2c(=O)[nH]c(C3CCCCC3)nc2c1` [Compound I-416, 2-cyclohexyl-N-hydroxy-4-oxo-3,4-dihydroquinazoline-7-carboxamide], the inhibition at 0.37 µM amounted to 90%.

On to `Cc1ccc(Cc2nc3cc(C(=O)NO)ccc3c(=O)[nH]2)c(C)c1` [Compound I-417, 2-(2,4-dimethylbenzyl)-N-hydroxy-4-oxo-3,4-dihydroquinazoline-7-carboxamide], for which the inhibition at 0.37 µM is 56.7%.
